pEC50: −log10 of the molar value. “Also recorded” adds a separate entry of the source. Residues, ends and D or L forms follow the SMILES beside them. *: point of attachment. Palmitoyl = CCCCCCCCCCCCCCCC(=O)*
Tests used:
Format in all cases: cell-based
human neutrophils = assay: Direct activation: superoxide release (isoluminol/HRP chemiluminescence), human neutrophils; conditions: 10^5 cells, 37°C, isoluminol/HRP CL, pepducin 1 μM
From the text: (§1) Human peripheral blood neutrophils were isolated from buffy coats from healthy blood donors using dextran sedimentation and Ficoll-Paque gradient centrifugation as described. The remaining erythrocytes were disrupted by hypotonic lysis and the neutrophils were washed twice, suspended in KRG and, stored on melting ice until use. This isolation process permits cells to be purified with minimal granule mobilization. The buffy coats were obtained from the blood bank at Sahlgrenska University Hospital. Ethics approval was not needed since the buffy coats were provided anonymously and could not be traced back to a specific individual. This is in line with Swedish legislation section code 4§ 3p SFS 2003:460 (Lag om etikprövning av forskning som avser människor).
(§2) NADPH-oxidase activity was determined using an isoluminol and HRP-enhanced chemiluminescence (CL) system that allow for the determination of superoxide production. The CL activity was measured in a six-channel Biolumat LB 9505 apparatus (Berthold Co., Wildbad, Germany), using disposable 4-mL polypropylene tubes with 1 mL reaction mixture. […] The light emission was recorded continuously over time and presented as superoxide production (in arbitrary light units, cpm x10^-6) as a function of time (min). The activity before stimulus addition was recorded as basal line and this activity was not changed in vehicle control samples. […]

Fpr2^-/- neutrophils = assay: Direct activation: superoxide release, Fpr2^-/- mouse neutrophils compared with WT; conditions: pepducin 1 μM; % of peak fMIFL (10 nM) response; p ≤ 0.05 significant
From the text: (§3) C57BL/6 wild-type mice were purchased from Charles River Laboratories and Fpr2^−/− mice generated as described previously, were generously provided by Dr Ji Ming Wang, Frederick National Laboratory for Cancer Research, USA. Mice were kept under standard temperature and light conditions and fed laboratory chow and water ad libitum, at the Department of Rheumatology and Inflammation Research, University of Gothenburg. Sex matched WT and Fpr2^-/- animals (age 8–10 weeks) were used to isolated bone marrow derived neutrophils. The studies performed were approved by the Ethical Committee for Animal Experimentation, Göteborg, Sweden.
(§4) Mice (8–12 weeks of age) were killed by cervical dislocation, the femurs and tibias were removed and freed of soft tissue attachments, and the extreme distal tip of each extremity was cut off. […] The cell number and population of bone marrow cells were determined by flow cytometry based on forward scatter (size) and side scatter (density) localization.
(§5) NADPH-oxidase activity was determined using an isoluminol and HRP-enhanced chemiluminescence (CL) system that allow for the determination of superoxide production. The CL activity was measured in a six-channel Biolumat LB 9505 apparatus (Berthold Co., Wildbad, Germany), using disposable 4-mL polypropylene tubes with 1 mL reaction mixture. […]

mouse neutrophils [1] = biological target: T1, mouse neutrophils (Mus musculus, UniProt O88536); assay: Receptor (cross-)desensitization, superoxide release, WT mouse neutrophils; conditions: then pepducin 1 μM
T1 sequence (O88536 1-351): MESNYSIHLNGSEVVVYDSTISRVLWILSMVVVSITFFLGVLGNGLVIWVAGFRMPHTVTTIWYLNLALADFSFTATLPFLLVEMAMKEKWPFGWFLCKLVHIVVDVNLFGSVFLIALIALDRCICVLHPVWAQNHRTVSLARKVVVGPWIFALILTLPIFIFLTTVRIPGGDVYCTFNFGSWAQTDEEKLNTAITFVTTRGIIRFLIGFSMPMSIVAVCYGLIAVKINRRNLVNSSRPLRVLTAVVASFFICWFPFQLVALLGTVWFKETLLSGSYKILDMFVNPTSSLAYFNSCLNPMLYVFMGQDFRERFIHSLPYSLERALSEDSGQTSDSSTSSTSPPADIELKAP
Description: NADPH-oxidase activity was determined using an isoluminol and HRP-enhanced chemiluminescence (CL) system that allow for the determination of superoxide production [29, 30]. The CL activity was measured in a six-channel Biolumat LB 9505 apparatus (Berthold Co., Wildbad, Germany), using disposable 4-mL polypropylene tubes with 1 mL reaction mixture. The tubes contained 4 U HRP and 10 μg/mL isoluminol together with the cells that were equilibrated in the Biolumat for 5 min at 37°C, after which the stimulus solution (100 μL) was added. The light emission was recorded continuously over time and presented as superoxide production (in arbitrary light units, cpm x10^-6) as a function of time (min). […] Since the FPR/Fpr-mediated superoxide production with respect to the onset and decline are very similar, the peak activities were used to compare the responses induced.
The release of superoxide anions was continuously measured. […]

FPR2 [2] = biological target: T2, FPR2 (Homo sapiens, UniProt P25090); assay: Inhibition of WKYMVM-induced superoxide release, human neutrophils; conditions: pepducin 1 μM pre-incubated (mF2Pal16, F1Pal16: 5 min); WKYMVM 50 nM
T2 construct: Human peripheral blood neutrophils were isolated from buffy coats from healthy blood donors; endogenous in cells; host or cells: human peripheral blood neutrophils from buffy coats of healthy donors
T2 sequence (P25090 1-351): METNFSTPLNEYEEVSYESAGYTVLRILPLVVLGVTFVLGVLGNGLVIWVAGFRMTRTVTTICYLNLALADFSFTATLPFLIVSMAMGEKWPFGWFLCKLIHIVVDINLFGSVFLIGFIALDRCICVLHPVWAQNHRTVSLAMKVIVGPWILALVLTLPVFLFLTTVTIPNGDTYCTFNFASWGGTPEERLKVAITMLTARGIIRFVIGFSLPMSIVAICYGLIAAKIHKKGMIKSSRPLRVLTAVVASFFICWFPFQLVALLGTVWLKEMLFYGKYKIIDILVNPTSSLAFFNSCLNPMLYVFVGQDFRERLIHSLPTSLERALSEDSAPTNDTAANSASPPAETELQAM
From the text: as §1
NADPH-oxidase activity was determined using an isoluminol and HRP-enhanced chemiluminescence (CL) system that allow for the determination of superoxide production. The CL activity was measured in a six-channel Biolumat LB 9505 apparatus (Berthold Co., Wildbad, Germany), using disposable 4-mL polypropylene tubes with 1 mL reaction mixture. The tubes contained 4 U HRP and 10 μg/mL isoluminol together with the cells that were equilibrated in the Biolumat for 5 min at 37°C, after which the stimulus solution (100 μL) was added. The light emission was recorded continuously over time and presented as superoxide production (in arbitrary light units, cpm x10^-6) as a function of time (min). The activity before stimulus addition was recorded as basal line and this activity was not changed in vehicle control samples. […]
Data analysis was performed using Graph Pad Prism 7.0. The EC50/IC50 values were determined from experiments in which the activities were normalized to the response induced by maximal response or induced by agonist in the absence of inhibitor. […]
Human neutrophils (10^5 cells) were pre-incubated without (solid line) or with mF2Pal16 (1 μM) for 5 min before stimulation with A) the FPR2 specific agonist WKYMVM (50 nM, indicated by the arrow). […] The release of superoxide anions was measured continuously. […]

Fpr2 [3] = biological target: T3, Fpr2 (Mus musculus, UniProt O88536); assay: Receptor preference in mouse neutrophils (Fpr2 versus Fpr1); conditions: conclusion from superoxide release, Fpr2^-/- cells, desensitization and inhibitors
T3 construct: WT mouse neutrophils (5 x 10^4 cells) were pre-incubated without (solid line) or with mF2Pal16; endogenous in cells; host or cells: bone marrow neutrophils of C57BL/6 wild-type mice, TNF-alpha primed
T3 sequence (O88536 1-351): T1 sequence (O88536 1-351)
From the text: as §3, §4, §5

mouse neutrophils [4] = biological target: T1, mouse neutrophils; assay: Direct activation: superoxide release (isoluminol/HRP chemiluminescence), WT mouse bone marrow neutrophils; conditions: for pEC50: approximate value given in running text
From the text: Mice (8–12 weeks of age) were killed by cervical dislocation, the femurs and tibias were removed and freed of soft tissue attachments, and the extreme distal tip of each extremity was cut off. KRG without Ca^2+ and Mg^2+ (KRG-) was forced through the bone by using a 1-mL syringe with a 27-gauge needle. After dispersing cell clumps and removing the debris, the bone marrow granulocytes were isolated according to an earlier described procedure with some modifications. Briefly, a cell suspension in 2 mL of KRG- was laid on top of a three-layer Percoll gradient (1.095, 1.085, and 1.070 g/mL). The density of each Percoll solution was verified using density marker beads. After centrifugation at 500 × g for 30 min at 4°C in a swinging bucket rotor, the lowest band (1.085/1.095 g/mL interface) was collected as the neutrophil fraction. After washing with KRG-, remaining red blood cells were eliminated by hypotonic lysis. After a final wash with KRG-, the cells were resuspended in KRG. The cell number and population of bone marrow cells were determined by flow cytometry based on forward scatter (size) and side scatter (density) localization.
NADPH-oxidase activity was determined using an isoluminol and HRP-enhanced chemiluminescence (CL) system that allow for the determination of superoxide production. The CL activity was measured in a six-channel Biolumat LB 9505 apparatus (Berthold Co., Wildbad, Germany), using disposable 4-mL polypropylene tubes with 1 mL reaction mixture. The tubes contained 4 U HRP and 10 μg/mL isoluminol together with the cells that were equilibrated in the Biolumat for 5 min at 37°C, after which the stimulus solution (100 μL) was added. The light emission was recorded continuously over time and presented as superoxide production (in arbitrary light units, cpm x10^-6) as a function of time (min). The activity before stimulus addition was recorded as basal line and this activity was not changed in vehicle control samples. Since the FPR/Fpr-mediated superoxide production with respect to the onset and decline are very similar, the peak activities were used to compare the responses induced.
Naïve bone marrow cells produce very low levels of superoxide upon stimulation and to increase this production the cells were routinely primed for one hour at RT followed by TNF-α (10 ng/mL, final concentration) priming for a period of 20 min at 37°C [10]. The cells were then kept on ice until further analysis, as described above. The reason for choosing the chemiluminescence based NADPH-oxidase assay system was that very few cells are required, allowing us to monitor and quantify receptor-mediated events with the limited number of mouse bone marrow neutrophils available.
Data analysis was performed using Graph Pad Prism 7.0. The EC50/IC50 values were determined from experiments in which the activities were normalized to the response induced by maximal response or induced by agonist in the absence of inhibitor. The statistical analysis was performed on raw data using Student’s t-test when two groups were compared or one-way ANOVA with Dunnett’s multiple comparisons test in comparison to the control response when three groups were compared. * p ≤ 0.05 was considered significant.

FPR1 = assay: Inhibition of fMLF-induced superoxide release, human neutrophils; conditions: pepducin 1 μM; fMLF 50 nM
From the text: as §1, §2

FPR2 [5] = assay: Receptor preference in human neutrophils (FPR2 versus FPR1); conditions: conclusion from superoxide release experiments
From the text: as §1, §2

SMILES | superoxide release / activation of human neutrophils (human neutrophils) | superoxide release in Fpr2^-/- neutrophils compared with WT (Fpr2^-/- neutrophils) | response to second stimulation after PSMα2 (mouse neutrophils [1]; first PSMα2 50 nM) | response to second stimulation after fMIFL (mouse neutrophils [1]; first fMIFL 10 nM) | effect on WKYMVM response, human neutrophils (FPR2 [2]) | receptor preference / modulation of Fpr2 (versus Fpr1) in mouse neutrophils (Fpr2 [3]) | superoxide release / activation of WT mouse neutrophils (mouse neutrophils [4]; WT mouse (C57BL/6) bone marrow neutrophils, TNF-α primed, 5 x 10^4 cells, 37°C, isoluminol/HRP CL, peak activity, pepducin 1 μM in figures) | relative potency, activation of WT mouse neutrophils (mouse neutrophils [4]; compared in words with derivatives or other pepducins, 1 μM in Figs 3, 6C, % of fMIFL (10 nM) peak, three independent experiments) | effect on fMLF response, human neutrophils (FPR1) | receptor preference / modulation of FPR2 (versus FPR1) in human neutrophils (FPR2 [5]) | pEC50 (mouse neutrophils [4])
CCCCCCCCCCCCCCCC(=O)N[C@@H](CCCCN)C(=O)N[C@H](C(=O)N[C@@H](Cc1c[nH]cn1)C(=O)N[C@@H](CCCNC(=N)N)C(=O)N[C@@H](CCC(N)=O)C(=O)NCC(=O)N[C@@H](CC(C)C)C(=O)N[C@H](C(=O)N[C@@H](CCCCN)C(=O)N[C@@H](CO)C(=O)N[C@@H](CO)C(=O)N[C@@H](CCCNC(=N)N)C(=O)N1CCC[C@H]1C(=O)N[C@@H](CC(C)C)C(=O)N[C@@H](CCCNC(=N)N)C(=O)N[C@H](C(=O)O)C(C)C)[C@@H](C)CC)[C@@H](C)CC [mF1Pal16] (Palmitoyl-KIHRQGLIKSSRPLRV-OH; N-terminus and C-terminus assumed) | Human neutrophils were not activated; also recorded: does not activate human neutrophils to produce superoxide | not abolished but significantly reduced | non-responsive to a second stimulation | not fMIFL-stimulated cells were non-responsive | inhibited the response | activates primarily Fpr2 in mouse neutrophils; also recorded: positively target the mouse Fpr2; also recorded: can act as an agonist for Fpr2 | triggered activation of the NADPH-oxidase in mouse neutrophils | much lower EC50 value as compared to that of F1Pal16 | did not affect the response | very similar activities but with somewhat different potency; also recorded: preference for FPR2 over FPR1; also recorded: inhibits the FPR2 activity in human neutrophils; also recorded: negatively target human FPR2 | 
CCCCCCCCCCCCCCCC(=O)N[C@@H](CCCCN)C(=O)N[C@H](C(=O)N[C@@H](Cc1c[nH]cn1)C(=O)N[C@@H](CCCCN)C(=O)N[C@@H](CCC(N)=O)C(=O)NCC(=O)N[C@@H](CC(C)C)C(=O)N[C@H](C(=O)N[C@@H](CCCCN)C(=O)N[C@@H](CO)C(=O)N[C@@H](CO)C(=O)N[C@@H](CCCNC(=N)N)C(=O)N1CCC[C@H]1C(=O)N[C@@H](CC(C)C)C(=O)N[C@@H](CCCNC(=N)N)C(=O)N[C@H](C(=O)O)C(C)C)[C@@H](C)CC)[C@@H](C)CC [F1Pal16] (Palmitoyl-KIHKQGLIKSSRPLRV-OH) |  |  |  |  |  |  |  |  |  |  | ~6.52
CCCCCCCCCCCCCCCC(=O)N[C@@H](CCCCN)C(=O)N[C@H](C(=O)N[C@@H](Cc1c[nH]cn1)C(=O)N[C@@H](CCCCN)C(=O)N[C@@H](CCCCN)C(=O)NCC(=O)N[C@@H](CCSC)C(=O)N[C@H](C(=O)N[C@@H](CCCCN)C(=O)N[C@@H](CO)C(=O)N[C@@H](CO)C(=O)N[C@@H](CCCNC(=N)N)C(=O)N1CCC[C@H]1C(=O)N[C@@H](CC(C)C)C(=O)N[C@@H](CCCNC(=N)N)C(=O)N[C@H](C(=O)O)C(C)C)[C@@H](C)CC)[C@@H](C)CC [F2Pal16] (Palmitoyl-KIHKKGMIKSSRPLRV-OH) |  |  |  |  |  |  |  |  |  |  | ~6.52
